Article PMC11674187, “Inhibitory Effects of Cenobamate on Multiple Human Cardiac Ion Channels and Possible Arrhythmogenic Consequences” (Biomolecules, 2024)
Several values for one entry are separate records, joined by “and”; a condition that tells them apart may be missing. Equal values may be shown once. Read-outs that look alike come from different tables or passages of the source.

Key:
[1] = rabbit; ref [5] p.10; cited from earlier work
[2] = parameters: method as in PMID 33031714; conditions: adults with focal onset seizures; ref [2]; cited from earlier work
[3] = cited from earlier work
[4] = system: Ncyte® vCardiomyocytes; assay: Amphotericin-perforated whole-cell recordings on hiPSC-CM (current clamp and voltage clamp); format: cell-based, human; conditions: cenobamate 200 µM
Procedure: Experiments were performed on HEK293T cell lines with persistent/inducible expression of different human cardiac ion channel isoforms: hNav1.5 and hKv7.1 + minK (Anaxon AG, Bern, Switzerland), hCav1.2 (α1c + β2 + α2δ1) (B’SYS GmbH, Witterswil, Switzerland), and hKv11.1 (hERG) (Cytocentrics Bioscience GmbH, Rostock, Germany). The cell lines were grown in standard conditions (37 °C, 5% CO2, 90% humidity) in DMEM:F12 medium (D8900, Sigma-Aldrich, Burlington, MA, USA) buffered with 15 mM HEPES, containing 3.15 g/L D-glucose and 0.055 g/L sodium pyruvate, supplemented with 1.2 g/L sodium bicarbonate, 10% fetal bovine serum (F2442, Sigma-Aldrich, Burlington, MA, USA), 2 mM L-glutamine (G7513, Sigma-Aldrich, Burlington, MA, USA), 1% penicillin–streptomycin (P4333, Sigma-Aldrich, Burlington, MA, USA), and with specific antibiotics for selection of transfected cells or induction of gene expression according to manufacturers’ instructions. The medium was changed every 2–3 days and the cells were passed weekly upon detachment with trypsin–EDTA solution. All cell culture media and solutions were sterile filtered with 0.22 μm polyvinylidene fluoride filters. Ncyte® vCardiomyocytes (Ncardia, Leiden, The Netherlands) were cultured in 24-well plates precoated with bovine fibronectin, following manufacturer’s instructions. For the experiments, cardiomyocytes were detached as described previously and plated on ϕ 10 mm glass coverslips, like the other cell lines.
Experiments on Ncyte® vCardiomyocytes were performed via an amphotericin-perforated whole-cell approach, filling the pipettes with solution containing amphotericin B 300 µg/mL except for a small region near the tip that contained amphotericin-free solution. The voltage-clamp and current-clamp protocols were similar to those used in our previous studies; the following protocols were recorded in sequence before and at 3 min after application of cenobamate in the bath to a final concentration of 200 µM: • - Nav standard protocol: holding −90 mV, depolarizing step at −10 mV lasting 40 ms; • - Cav-Nav separation protocol: holding −80 mV, first step at −20 mV 200 ms, intermediate step at −40 mV 100 ms, second step at −50 mV to +50 mV 200 ms, in 10 mV increments in consecutive sweeps; • - hERG standard protocol: holding −70 mV, a brief preliminary step at −50 mV 100 ms, first step at +40 mV 2000 ms, second step at −120 mV/−50 mV 2000 ms (in consecutive sweeps); • - A double voltage ramp protocol: holding −80 mV, first ramp from −120 mV to +80 mV in 2000 ms, second ramp from +80 mV back to −120 mV in 2000 ms, sweeps repeated at 10 s intervals; • - A current-clamp protocol with external pacing: 3 current stimuli of 2 nA amplitude, duration 0.5 ms (up to 2.5 ms in some experiments) applied at 3 s intervals, first stimulus at 500 ms after start of recording; in cells with spontaneous pace-making, this phenomenon was suppressed by applying a steady hyperpolarizing current of −10 pA or −20 pA. […]

[5] = cited from earlier work; for healthy volunteers with QT interval shortening greater than 20 ms: study YKP3089C020, ref [9] p. 11

For `NC(=O)O[C@@H](Cn1ncnn1)c1ccccc1Cl` [cenobamate], the protein binding [1] is given as 35.4%, the “reduction in monthly seizure frequency” value [2] is given as “up to 55%” and the seizure-free rates [2] is given as “up to 28%”. For the same compound, the “peak plasma therapeutic concentration (Cmax)” value ([3]; 400 mg/day, study YKP3089C018, ref [5] p. 13) was 45500 ng/mL, the Cmax ([3]; read-out: Cmax (maximal effective therapeutic plasma concentration), 400 mg/day, ref [5] p. 13 / p. 10) was 170 µM and the Cmax ([3]; read-out: Cmax (model script), value entered in C++ script, ref [5]) was 170 µM. The “%ICaL peak change, mean (Table S8)” value ([4]; hiPSC-CM) was 35.16%, the “%INa peak change, mean (Table S8)” value ([4]; hiPSC-CM) was 27.43% and the “%If change, mean (Table S8)” value ([4]; hiPSC-CM) was 19.89%. The “APD90 ceno, mean (Table S8)” value ([4]; initial mean 1212.99 ms) was 619.83 ms, the “average APD90 shortening (%APD90 change)” value ([4]; mean (SD), n = 5) was 28.55% and 28.6 ± 13.5% and the “healthy volunteers with QT interval shortening greater than 20 ms” value ([5]; 200 mg oral dose, 6–17% with placebo) was 31%. For the same compound, the “healthy volunteers with QT interval shortening greater than 20 ms” value ([5]; 500 mg) was 66%, the QTc interval shortening ([5]; ref [9] pp. 11–12) was greater than 20 ms and the “QTc interval under cenobamate (not below)” value ([5]; ref [9] pp. 11–12) was no less than 300 ms.
